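GI50 = concentration required for 50% inhibition of growth. TGI marks complete inhibition of growth.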
Tests used:
Experiment in all cases: NCI tumour cell line growth inhibition, 384-well format
U251 glioblastoma = test system: U251 glioblastoma
HL-60(TB) leukemia = test system: HL-60(TB) leukemia
M14 melanoma = test system: M14 melanoma
UACC-62 melanoma = test system: UACC-62 melanoma
SN12C renal = test system: SN12C renal
NCI-H226 lung = test system: NCI-H226 lung
SNB-75 CNS = test system: SNB-75 CNS
IGROV1 ovarian = test system: IGROV1 ovarian
RXF 393 renal = test system: RXF 393 renal
NCI-H23 lung = test system: NCI-H23 lung
HCT-116 colon = test system: HCT-116 colon
PC-3 prostate = test system: PC-3 prostate
TK-10 renal = test system: TK-10 renal
MDA-MB-468 breast = test system: MDA-MB-468 breast
MDA-MB-231 breast = test system: MDA-MB-231 breast
HS 578T breast = test system: HS 578T breast
MOLT-4 leukemia = test system: MOLT-4 leukemia
OVCAR-3 ovarian = test system: OVCAR-3 ovarian
HOP-92 NSCLC = test system: HOP-92 NSCLC
SF-539 CNS = test system: SF-539 CNS
786-0 renal = test system: 786-0 renal
DU-145 prostate = test system: DU-145 prostate
SK-OV-3 ovarian = test system: SK-OV-3 ovarian
A549 NSCLC = test system: A549 NSCLC
CCRF-CEM leukemia = test system: CCRF-CEM leukemia
RPMI-8226 leukemia = test system: RPMI-8226 leukemia
OVCAR-4 ovarian = test system: OVCAR-4 ovarian
OVCAR-5 ovarian = test system: OVCAR-5 ovarian
MALME-3M melanoma = test system: MALME-3M melanoma
BT-549 breast = test system: BT-549 breast
SNB-19 CNS = test system: SNB-19 CNS
NCI-H522 lung = test system: NCI-H522 lung
K-562 leukemia = test system: K-562 leukemia
UO-31 renal = test system: UO-31 renal
ACHN renal = test system: ACHN renal
HCT-15 colon = test system: HCT-15 colon
HT29 colon = test system: HT29 colon
NCI/ADR-RES ovarian = test system: NCI/ADR-RES ovarian
HOP-62 NSCLC = test system: HOP-62 NSCLC
SF-268 CNS = test system: SF-268 CNS
NCI-H322M lung = test system: NCI-H322M lung
SF-295 CNS = test system: SF-295 CNS
MCF7 breast = test system: MCF7 breast
OVCAR-8 ovarian = test system: OVCAR-8 ovarian
SK-MEL-2 melanoma = test system: SK-MEL-2 melanoma
MDA-MB-435 melanoma = test system: MDA-MB-435 melanoma
T-47D breast = test system: T-47D breast
UACC-257 melanoma = test system: UACC-257 melanoma
A498 renal = test system: A498 renal
SW-620 colon = test system: SW-620 colon
KM12 colon = test system: KM12 colon
SK-MEL-28 melanoma = test system: SK-MEL-28 melanoma
CAKI-1 renal = test system: CAKI-1 renal

Structure (SMILES): CCCCC(=O)OCC(=O)[C@]1(O)Cc2c(O)c3c(c(O)c2[C@@H](OC2CC(NC(=O)C(F)(F)F)C(O)C(C)O2)C1)C(=O)c1c(OC)cccc1C3=O (some centres undefined)
- GI50 (U251 glioblastoma): 45 nM
- TGI (U251 glioblastoma): 10400 nM
- TGI (HL-60(TB) leukemia): 16.6 nM
- GI50 (M14 melanoma): 73.2 nM
- TGI (M14 melanoma): 1380 nM
- GI50 (UACC-62 melanoma): 50.6 nM
- TGI (UACC-62 melanoma): 1020 nM
- GI50 (SN12C renal): 60.6 nM
- TGI (SN12C renal): 1370 nM
- GI50 (NCI-H226 lung): 122 nM
- TGI (NCI-H226 lung): 1190 nM
- GI50 (SNB-75 CNS): 142 nM
- TGI (SNB-75 CNS): 1290 nM
- GI50 (IGROV1 ovarian): 1110 nM
- TGI (IGROV1 ovarian): 3860 nM
- GI50 (RXF 393 renal): 320 nM
- TGI (RXF 393 renal): 1940 nM
- GI50 (NCI-H23 lung): 60.3 nM
- TGI (NCI-H23 lung): 1150 nM
- GI50 (HCT-116 colon): 49 nM
- TGI (HCT-116 colon): 34000 nM
- GI50 (PC-3 prostate): 1020 nM
- TGI (PC-3 prostate): 4020 nM
- GI50 (TK-10 renal): 997 nM
- TGI (TK-10 renal): 5090 nM
- GI50 (MDA-MB-468 breast): 29.9 nM
- TGI (MDA-MB-468 breast): 85.9 nM
- GI50 (MDA-MB-231 breast): 126 nM
- TGI (MDA-MB-231 breast): 2100 nM
- GI50 (HS 578T breast): 122 nM
- TGI (HS 578T breast): 1870 nM
- TGI (MOLT-4 leukemia): 10.4 nM
- GI50 (OVCAR-3 ovarian): 1200 nM
- TGI (OVCAR-3 ovarian): 44500 nM
- GI50 (HOP-92 NSCLC): 142 nM
- TGI (HOP-92 NSCLC): 19200 nM
- GI50 (SF-539 CNS): 73.1 nM
- TGI (SF-539 CNS): 1340 nM
- GI50 ([…]-0 renal): 64.2 nM
- TGI (786-0 renal): 1980 nM
- GI50 (DU-145 prostate): 37.1 nM
- TGI (DU-145 prostate): 1000 nM
- GI50 (SK-OV-3 ovarian): 107 nM
- TGI (SK-OV-3 ovarian): 5440 nM
- GI50 (A549 NSCLC): 84.4 nM
- TGI (A549 NSCLC): 1780 nM
- GI50 (CCRF-CEM leukemia): 17.3 nM
- TGI (CCRF-CEM leukemia): 32.3 nM
- GI50 (RPMI-8226 leukemia): 12.9 nM
- TGI (RPMI-8226 leukemia): 36 nM
- GI50 (OVCAR-4 ovarian): 1680 nM
- TGI (OVCAR-4 ovarian): 7010 nM
- GI50 (OVCAR-5 ovarian): 1240 nM
- TGI (OVCAR-5 ovarian): 5620 nM
- GI50 (MALME-3M melanoma): 188 nM
- TGI (MALME-3M melanoma): 1660 nM
- GI50 (BT-549 breast): 73.8 nM
- TGI (BT-549 breast): 1440 nM
- GI50 (SNB-19 CNS): 64.8 nM
- TGI (SNB-19 CNS): 11900 nM
- GI50 (NCI-H522 lung): 101 nM
- TGI (NCI-H522 lung): 1000 nM
- GI50 (K-562 leukemia): 104 nM
- TGI (K-562 leukemia): 1760 nM
- GI50 (UO-31 renal): 1480 nM
- TGI (UO-31 renal): 2990 nM
- GI50 (ACHN renal): 213 nM
- TGI (ACHN renal): 1890 nM
- GI50 (HCT-15 colon): 98.5 nM
- TGI (HCT-15 colon): 1620 nM
- GI50 (HT29 colon): 303 nM
- TGI (HT29 colon): 2290 nM
- GI50 (NCI/ADR-RES ovarian): 7460 nM
- TGI (NCI/ADR-RES ovarian): 44100 nM
- GI50 (HOP-62 NSCLC): 42.1 nM
- TGI (HOP-62 NSCLC): 327 nM
- GI50 (SF-268 CNS): 70.2 nM
- TGI (SF-268 CNS): 2110 nM
- GI50 (NCI-H322M lung): 2420 nM
- TGI (NCI-H322M lung): 15200 nM
- GI50 (SF-295 CNS): 53.6 nM
- TGI (SF-295 CNS): 1460 nM
- GI50 (MCF7 breast): 84.9 nM
- TGI (MCF7 breast): 7560 nM
- GI50 (OVCAR-8 ovarian): 73.3 nM
- TGI (OVCAR-8 ovarian): 1810 nM
- GI50 (SK-MEL-2 melanoma): 372 nM
- TGI (SK-MEL-2 melanoma): 991 nM
- GI50 (MDA-MB-435 melanoma): 738 nM
- TGI (MDA-MB-435 melanoma): 2630 nM
- GI50 (T-47D breast): 96.2 nM
- TGI (T-47D breast): 2570 nM
- GI50 (UACC-257 melanoma): 404 nM
- TGI (UACC-257 melanoma): 1740 nM
- GI50 (A498 renal): 87.5 nM
- TGI (A498 renal): 2870 nM
- GI50 (SW-620 colon): 75.3 nM
- TGI (SW-620 colon): 16200 nM
- GI50 (KM12 colon): 99.6 nM
- TGI (KM12 colon): 1700 nM
- GI50 (SK-MEL-28 melanoma): 468 nM
- TGI (SK-MEL-28 melanoma): 2020 nM
- GI50 (CAKI-1 renal): 128 nM
- TGI (CAKI-1 renal): 2530 nM

From PubChem BioAssay (NCI)
